Key:
[1] = test system: ISRE reporter signal; experiment: ISRE luciferase reporter assay, THP-1 cells co-treated with compound and cGAMP; format: cell-based, Human; conditions: THP-1 cells, 20 μM of each compound, co-treated with cGAMP (1 μg/ml), 24 hours
Method: (§1) Human monocytic THP-1 wild-type (WT) and STING knockout (KO) cell lines were obtained from InvivoGen. Cells were cultured in 1×RPMI 1640 medium containing 10% fetal bovine serum (FBS, Hyclone), 2.05 mM L-glutamine (Hyclone) and 1% penicillin (Corning) in a humidified incubator at 37° C. under 5% CO2.
To confirm immune responses, THP-1 cells were placed in 384-well plates (Grenier), and treated with each compound and cGAMP (1 μg/ml), and after 24 hours, ISRE activity was analyzed. QUANTI-Luc assay (InvivoGen) was performed using the cell culture supernatant to confirm the luciferase reporter gene signal. Fluorescent signals were measured using a TECAN micro plate reader SPARK, and the results were normalized to DMSO control.
(§2) THP-1 cells were co-treated with each of 86 indolizine derivatives and a very small amount of cGAMP (1 μg/ml), the immune response of the THP-1 cells was examined by ISRE reporter assay, and the cytotoxicity of co-treatment was also evaluated (Table 1). All results were compared by normalization to the reporter assay results obtained by treatment with cGAMP alone. […] Thus, Compound 42 was used in subsequent experiments.

[2] = test system: THP-1 cells; experiment: Cell viability assay (CellTiter Clo) in THP-1 cells; format: cell-based, Human; conditions: THP-1 cells, 20 μM of each compound, co-treated with cGAMP (1 μg/ml)
Method: as §1
Cells were analyzed using CellTiter Clo (CTG, Promega). […] was measured using a TECAN micro plate reader SPARK. Results were normalized to DMSO control.
as §2

SMILES	Normalized RU (relative unit of ISRE reporter signal) [1]	Normalized cell viability [2]
O=C(c1ccc(C(F)(F)F)cc1)c1cc(-c2ccc(C(F)(F)F)cc2)c2cc(C(F)(F)F)ccn12 [Compound 1]	1.46	1.10
CC(=O)c1ccc(-c2cc(C(=O)c3ccc(C(F)(F)F)cc3)n3ccc(C(F)(F)F)cc23)cc1 [Compound 2]	1.42	1.03
O=C(c1ccc(C(F)(F)F)cc1)c1cc(-c2ccccc2)c2cc(C(F)(F)F)ccn12 [Compound 3]	1.40	1.04
COc1ccc(-c2cc(C(=O)c3ccc(C(F)(F)F)cc3)n3ccc(C(F)(F)F)cc23)cc1 [Compound 4]	1.33	1.05
CN(C)c1ccc(-c2cc(C(=O)c3ccc(C(F)(F)F)cc3)n3ccc(C(F)(F)F)cc23)cc1 [Compound 5]	1.58	1.05
O=C(c1ccccc1)c1cc(-c2ccc(C(F)(F)F)cc2)c2cc(C(F)(F)F)ccn12 [Compound 6]	1.38	1.19
CC(=O)c1ccc(-c2cc(C(=O)c3ccccc3)n3ccc(C(F)(F)F)cc23)cc1 [Compound 7]	1.54	1.20
O=C(c1ccccc1)c1cc(-c2ccccc2)c2cc(C(F)(F)F)ccn12 [Compound 8]	1.18	1.06
COc1ccc(-c2cc(C(=O)c3ccccc3)n3ccc(C(F)(F)F)cc23)cc1 [Compound 9]	1.21	1.03
CN(C)c1ccc(-c2cc(C(=O)c3ccccc3)n3ccc(C(F)(F)F)cc23)cc1 [Compound 10]	1.67	1.21
COc1ccc(C(=O)c2cc(-c3ccc(C(F)(F)F)cc3)c3cc(C(F)(F)F)ccn23)cc1 [Compound 11]	2.02	1.16
COc1ccc(C(=O)c2cc(-c3ccc(C(C)=O)cc3)c3cc(C(F)(F)F)ccn23)cc1 [Compound 12]	1.31	1.25
COc1ccc(C(=O)c2cc(-c3ccccc3)c3cc(C(F)(F)F)ccn23)cc1 [Compound 13]	1.62	1.14
COc1ccc(C(=O)c2cc(-c3ccc(OC)cc3)c3cc(C(F)(F)F)ccn23)cc1 [Compound 14]	1.48	1.30
COc1ccc(C(=O)c2cc(-c3ccc(N(C)C)cc3)c3cc(C(F)(F)F)ccn23)cc1 [Compound 15]	1.18	1.17
CCN(CC)c1ccc(C(=O)c2cc(-c3ccc(C(F)(F)F)cc3)c3cc(C(F)(F)F)ccn23)cc1 [Compound 16]	1.66	1.22
CCN(CC)c1ccc(C(=O)c2cc(-c3ccc(C(C)=O)cc3)c3cc(C(F)(F)F)ccn23)cc1 [Compound 17]	1.45	1.29
CCN(CC)c1ccc(C(=O)c2cc(-c3ccccc3)c3cc(C(F)(F)F)ccn23)cc1 [Compound 18]	1.85	1.17
CCN(CC)c1ccc(C(=O)c2cc(-c3ccc(OC)cc3)c3cc(C(F)(F)F)ccn23)cc1 [Compound 19]	1.58	1.29
CCN(CC)c1ccc(C(=O)c2cc(-c3ccc(N(C)C)cc3)c3cc(C(F)(F)F)ccn23)cc1 [Compound 20]	1.46	1.05
CC(=O)c1ccn2c(C(=O)c3ccc(C(F)(F)F)cc3)cc(-c3ccc(C(F)(F)F)cc3)c2c1 [Compound 21]	1.86	1.19
CC(=O)c1ccc(-c2cc(C(=O)c3ccc(C(F)(F)F)cc3)n3ccc(C(C)=O)cc23)cc1 [Compound 22]	1.31	1.09
CC(=O)c1ccn2c(C(=O)c3ccc(C(F)(F)F)cc3)cc(-c3ccccc3)c2c1 [Compound 23]	1.23	1.11
COc1ccc(-c2cc(C(=O)c3ccc(C(F)(F)F)cc3)n3ccc(C(C)=O)cc23)cc1 [Compound 24]	1.33	1.21

Source: patent publication US20230390319A1, “INTERFERON GENE STIMULATOR COMPOSITION COMPRISING INDOLIZINE DERIVATIVE AS ACTIVE INGREDIENT” (AJOU UNIVERSITY INDUSTRY-ACADEMIC COOPERATION FOUNDATION, priority 2020, published 2023)
